Tested on: wild-type HN08 strain
Type: cell-based, C. siamense

SMILES: N#Cc1c[nH]cc1-c1cccc2c1OC(F)(F)O2 [fludioxonil]
- strain growth rate: gradually decreases
